The values below are quoted from earlier work in patent publication US20230218796A1, “Tissue adhesive for use in a treatment method in which an ophthalmological implant is implanted in a human or animal patient, and ophthalmological implantation system” (priority 2020, published 2023).

Structures are written as SMILES.

Data set [1] has as its system epithelial cell layer of the cornea. As to conditions: free thapsigargin released into the aqueous humor in the anterior chamber.
The test system of data set [2] is cell growth in the capsular bag.

Take `C/C=C(/C)C(=O)O[C@H]1C(C)=C2[C@H]([C@@H]1OC(=O)CCCCCCC)[C@@](C)(OC(C)=O)C[C@H](OC(=O)CCC)[C@@]1(O)[C@H]2OC(=O)[C@@]1(C)O` [thapsigargin]: in data set [1], the “damage to the cornea on free release into the aqueous humor in the anterior chamber” value is “can damage the epithelial cell layer of the cornea”. Moreover, the “higher concentration that induces cell death” value in data set [2] (higher concentrations) is 10 to 100 µM. Moreover, in data set [2] (low concentrations), the “low concentration that greatly reduces cell growth in the capsular bag” value was 100 nM.
